Entries after “also recorded” stand apart in the source; their conditions may differ.
Assays:
[1] = tested on: non-lesion containing DNA hairpin (undamaged double stranded DNA); assay: Fluorescence of probe with non-lesion DNA hairpin (non-covalent); assay type: binding; settings: 5 μM probe, 20 μM DNA; over free probe
Description: (§1) FIG. 9 provides interaction between Compound (1) (CCVJ1) and DNA. […] (Ex. 485, Em. 538).
(§2) To further explore the hypothesis that the oxime rate acceleration in these AP-site DNAs was related to base stacking interactions, the fluorescence was measured of CCVJ1 in the presence and absence of a non-lesion containing DNA hairpin.

[2] = Off-target light-up with small-molecule carbonyl species; settings: 5 μM CCVJ1, 500 μM carbonyl species, 37° C.
Description: FIG. 13 provides fluorescence response of 5 μM Compound (1) (CCVJ1) with 500 μM of various biologically relevant carbonyl species after 1 h incubation in buffer at 37° C. […] (Ex. 485, Em. 538)
(§3) Since the probe design involves conformational restriction to induce a light-up signal, it was hypothesized that off-target oxime formation with small molecules might induce a relatively small signal relative to DNA, thus providing a measure of selectivity in signaling. […] Another potential aspect is that ketones or aldehydes in the environment might compete with the DNA AP site to react with the aminooxy group, thereby consuming the free probe and reducing the maximum signal. Initial testing of the reactivity of CCVJ1 with AP site-containing DNA in the presence of increasing amounts of competing 2-deoxyribose, the closest small-molecule analogue to the DNA AP site. […] This was repeated this experiment with pyruvic acid, a highly reactive ketone and a common cellular metabolite.

[3] = tested on: DNA hairpin containing a tetrahydrofuran spacer (pseudo AP site); assay: Fluorescence of probe with pseudo AP site DNA hairpin (non-covalent); assay type: binding
Description: as §1, §2

[4] = Absorption spectra of free and AP site bound probe; assay type: physicochemical; settings: in buffer
From the text: FIG. 24 provides normalized absorption spectra of free Compound (1) (CCJV1 probe) and AP site bound probe in buffer. Oxime formation with the AP site red shifts absorption from a λmax of 454 nm in the unbound probe to a λmax of 468 nm in the bound probe. The extinction coefficient calculated for the unbound probe is 30,400 M^−1·cm^−1 and 28,700 M^−1·cm^−1 for the bound probe.
Instrumentation: NMR spectra were acquired on a Varian Inova 400 (400 MHz) or 500 (500 MHz) spectrometer and chemical shift reported in parts per million (6) relative to internal standard TMS (0 ppm). Small molecule mass spectra were measured on a Waters 2795 system via electrospray ionization (ESI) with a ZQ single quadrupole MS. Oligonucleotide mass spectra were acquired by MALDI-TOF using a Bruker Microflex MALDI-TOF in negative ion mode. Ultraviolet spectra were measured on a Cary 300. Fluorescence emission and excitation spectra were recorded on a Jobin Yvon-Spex Fluorolog 3 spectrometer with an external temperature controller. Fluorescence time courses were collected on a Fluoroskan Ascent Microplate Fluorometer (Thermo Fisher Scientific). Oligonucleotide concentrations were determined by UV-absorption on a NanoDrop One Microvolume UV-Vis Spectrophotometer (ThermoFisher Scientific). DNA synthesis was carried out on an Applied Biosystems 394 DNA/RNA synthesizer.

AP site-containing DNA = assay: Competition for oxime formation between CCVJ1 and AP site-containing DNA; assay type: biochemical
Description: FIG. 6 provides effect of adding exemplary linker NH2CH2CH2ONH2 to the reaction of Compound (1) (CCVJ1) (5 μM) with AP site containing DNA (20 μM) in buffer.
as §1
FIG. 14 provides effect of competing aldehydes/ketones on maximum fluorescence signal.
(§4) Additional experiments were performed to study the origins of this unusually rapid reaction. […] To test the effect that proximity between the alkoxyamine and planar portion of the probe had on oxime kinetics in our probes, probes were synthesized having variable-length linkers (CCVJ2 and CCVJ3) from aldehyde reactive linkers L2 and L3 respectively (FIG. 2A). […] To test the importance of a double-stranded DNA structure to the rate and fluorescence response, an AP-containing single-stranded DNA oligonucleotide was reacted with CCVJ1. At pH 7, CCVJ1 reacted with a second-order rate constant of 33 M^−1s^−1 with the single-stranded substrate, roughly 5-fold slower than a double-stranded hairpin with identical sequence context (FIG. 8).
as §2, §3

[5] = tested on: AP-containing single-stranded DNA oligonucleotide (oligonucleotide 18); assay: Reaction of probe with AP-containing single-stranded DNA; assay type: biochemical
Description: FIG. 8 provides representative plot for the reaction of Compound (1) (CCVJ1) with single stranded DNA oligonucleotide 18.
as §4

absorption λmax, AP site bound probe [4]: 468 nm
absorption λmax, unbound probe [4]: 454 nm
extinction coefficient, bound probe [4]: 28,700 M^−1·cm^−1
extinction coefficient, unbound probe [4]: 30,400 M^−1·cm^−1
SMILES: N#C/C(=C\c1cc2c3c(c1)CCCN3CCC2)C(=O)NCCON [CCVJ1]
increase in fluorescence intensity upon addition of non-lesion DNA hairpin [1]: ~2.5 fold
light-up response with small-molecule ketones and aldehydes [2]: absence of any fluorescence response; also recorded: none of them generated a significant light-up response
fluorescence with pseudo AP hairpin, higher than with undamaged DNA [3]: ~4 fold
increase in fluorescence with pseudo AP hairpin over the free probe ([3]; 5 μM probe, 20 μM DNA): ~10 fold
effect of equimolar pseudo AP DNA on rate of apparent oxime formation (AP site-containing DNA; 20 μM pseudo AP hairpin, 20 μM AP DNA, 5 μM CCVJ1): no effect on the rate of apparent oxime formation
effect of competing 2-deoxyribose on maximum signal (AP site-containing DNA; 1 mM deoxyribose (200 equivalents)): no effect on the maximum signal
signal retained compared to the AP DNA alone (AP site-containing DNA; 4 mM deoxyribose (800 equivalents)): 85%
effect of competing pyruvate on overall signal (AP site-containing DNA; up to 200 μM pyruvate (40 equivalents)): no significant reduction in overall signal
increase in fluorescence on reaction with single-stranded DNA [5]: 4 fold
rate with single-stranded substrate, slower than double-stranded hairpin of identical sequence context ([5]; pH 7): roughly 5 fold
second-order rate constant with single-stranded substrate ([5]; pH 7): 33 M⁻¹ s⁻¹

Source: patent US20210147932A1, “FLUORESCENT PROBES FOR QUANTIFICATION OF DNA DAMAGE AND REPAIR” (The Board of Trustees of the Leland Stanford Junior …, priority 2019, published 2021)
